In ChEMBL document CHEMBL4270637, “Small molecule-induced degradation of the full length and V7 truncated variant forms of human androgen receptor” (Eur J Med Chem, 2018):
pIC50: −log10 of the molar value. Activity calls are given as the source filed them. No cut-off for these calls is given here.

How the values were obtained:
Androgen receptor [1] = biological target: T1, Androgen receptor (Homo sapiens, UniProt P10275); experiment: Inhibition of R1881-induced full length AR transcriptional activity in human LNCAP cells harboring AR2PB-eGFP construct after 72 hrs by fluorescence assay; type: cell-based
T1 sequence (P10275 whole entry): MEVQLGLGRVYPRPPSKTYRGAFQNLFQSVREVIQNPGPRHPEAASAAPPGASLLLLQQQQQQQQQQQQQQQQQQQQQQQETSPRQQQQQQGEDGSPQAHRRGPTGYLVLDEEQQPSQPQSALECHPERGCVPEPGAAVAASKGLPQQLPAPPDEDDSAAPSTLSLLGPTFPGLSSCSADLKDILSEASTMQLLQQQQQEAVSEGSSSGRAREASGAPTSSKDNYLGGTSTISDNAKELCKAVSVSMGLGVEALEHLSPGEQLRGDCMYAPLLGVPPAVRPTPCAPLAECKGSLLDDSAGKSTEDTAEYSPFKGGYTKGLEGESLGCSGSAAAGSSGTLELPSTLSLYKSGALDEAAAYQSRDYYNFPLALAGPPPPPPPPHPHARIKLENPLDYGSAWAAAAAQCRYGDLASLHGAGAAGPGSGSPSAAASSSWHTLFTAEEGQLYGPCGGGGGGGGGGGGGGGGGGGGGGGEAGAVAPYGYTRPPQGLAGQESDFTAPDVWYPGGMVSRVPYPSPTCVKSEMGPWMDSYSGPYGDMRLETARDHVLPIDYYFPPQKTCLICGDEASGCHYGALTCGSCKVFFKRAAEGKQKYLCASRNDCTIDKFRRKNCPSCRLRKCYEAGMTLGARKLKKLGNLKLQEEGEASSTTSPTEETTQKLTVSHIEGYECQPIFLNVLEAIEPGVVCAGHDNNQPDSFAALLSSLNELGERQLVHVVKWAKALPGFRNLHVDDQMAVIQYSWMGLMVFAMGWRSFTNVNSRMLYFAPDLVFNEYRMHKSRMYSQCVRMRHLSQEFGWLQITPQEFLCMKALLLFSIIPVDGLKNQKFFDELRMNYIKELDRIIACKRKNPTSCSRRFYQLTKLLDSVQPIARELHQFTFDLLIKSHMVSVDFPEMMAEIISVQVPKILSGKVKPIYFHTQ

CWR22R [2] = experiment: Cytotoxicity against human 22Rv1 cells assessed as growth inhibition at lower concentration after 72 hrs by presto-blue dye based assay; type: functional, cell-based
LNCaP [3] = experiment: Induction of apoptosis in human LNCAP cells assessed as PARP cleavage at 2 to 20 uM after 5 hrs by Western blot analysis; type: functional, cell-based
Androgen receptor [4] = biological target: T1, Androgen receptor; experiment: Inhibition of full length AR transcriptional activity in human LNCAP cells harboring AR2PB-eGFP construct assessed as reduction in R1881-induced secreted PSA level after 72 hrs by fluorescence assay; type: cell-based
Androgen receptor [5] = biological target: Androgen receptor (Homo sapiens, UniProt P10275); experiment: Inhibition of R1881-induced transcriptional activity of human AR V7 truncated mutant expressed in human PC3 cells harboring pGL3-ARR3tk-NLuc after 24 hrs by luciferase reporter gene assay; type: cell-based
[6] = biological target: T2, Androgen receptor (Homo sapiens) (UniProt P10275); experiment: Induction of full length AR degradation in human LNCAP cells at 2 to 20 uM after 5 hrs by Western blot analysis; type: cell-based
T2 sequence (whole entry): T1 sequence (P10275 whole entry)

[7] = biological target: T2, Androgen receptor (Homo sapiens); conditions: at 10 µM
Description: Antagonist activity at full length YFP-tagged AR (unknown origin) expressed in HEK293T cells assessed as inhibition of R1881-induced nuclear translocation at 10 uM after 4 hrs by DAPI staining based confocal microscopic method

LNCaP [8] = experiment: Cytotoxicity against human LNCAP cells harboring AR2PB-eGFP construct after 72 hrs by MTS assay; type: cell-based
PC-3 [9] = experiment: Cytotoxicity against human PC3 cells harboring pGL3-ARR3tk-NLu/human AR V7 truncated mutant after 72 hrs by MTS assay; type: cell-based; conditions: pc-3, 72 h
[10] = biological target: T2, Androgen receptor (Homo sapiens); experiment: Induction of full length AR degradation in human LNCAP cells assessed as reduction in AR mRNA level at 2 to 20 uM after […] by RT-PCR method; type: cell-based
[11] = biological target: T3, Progesterone receptor (Homo sapiens) (UniProt P06401); experiment: Inhibition of progesterone-induced transcriptional activity of human PR expressed in human PC3 cells harboring pGL3-ARR3tk-NLuc at 2 uM after 24 hrs by luciferase reporter gene assay; type: cell-based
T3 sequence (whole entry): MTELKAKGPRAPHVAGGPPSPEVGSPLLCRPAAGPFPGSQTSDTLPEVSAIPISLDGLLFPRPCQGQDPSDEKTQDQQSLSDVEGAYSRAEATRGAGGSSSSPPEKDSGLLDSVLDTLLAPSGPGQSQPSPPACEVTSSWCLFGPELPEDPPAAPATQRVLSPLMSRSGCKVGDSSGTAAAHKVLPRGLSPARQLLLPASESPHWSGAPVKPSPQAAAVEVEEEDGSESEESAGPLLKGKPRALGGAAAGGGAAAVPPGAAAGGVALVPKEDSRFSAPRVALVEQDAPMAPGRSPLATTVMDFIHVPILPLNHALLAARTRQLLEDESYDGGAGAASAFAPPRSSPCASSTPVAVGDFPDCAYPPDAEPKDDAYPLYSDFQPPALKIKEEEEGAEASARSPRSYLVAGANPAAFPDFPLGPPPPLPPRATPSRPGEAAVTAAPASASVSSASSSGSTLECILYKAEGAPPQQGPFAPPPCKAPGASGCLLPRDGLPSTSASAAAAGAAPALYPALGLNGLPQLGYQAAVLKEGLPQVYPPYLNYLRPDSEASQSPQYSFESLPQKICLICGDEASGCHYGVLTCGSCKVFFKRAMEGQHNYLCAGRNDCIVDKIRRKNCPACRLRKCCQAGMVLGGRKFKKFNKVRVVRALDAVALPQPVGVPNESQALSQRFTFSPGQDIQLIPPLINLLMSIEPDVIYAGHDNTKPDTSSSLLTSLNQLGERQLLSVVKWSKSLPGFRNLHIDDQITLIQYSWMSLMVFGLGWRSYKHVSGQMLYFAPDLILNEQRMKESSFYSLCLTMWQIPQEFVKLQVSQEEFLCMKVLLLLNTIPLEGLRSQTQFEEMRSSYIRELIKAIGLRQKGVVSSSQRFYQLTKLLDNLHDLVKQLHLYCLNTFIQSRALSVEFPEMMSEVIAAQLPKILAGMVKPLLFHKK

[12] = biological target: T2, Androgen receptor (Homo sapiens); experiment: Inhibition of R1881-induced transcriptional activity of human AR expressed in human PC3 cells harboring pGL3-ARR3tk-NLuc at 2 uM after 24 hrs by luciferase reporter gene assay; type: cell-based
[13] = biological target: T4, Glucocorticoid receptor (Homo sapiens) (UniProt P04150); experiment: Inhibition of dexamethasone-induced transcriptional activity of human GR expressed in human PC3 cells harboring pGL3-ARR3tk-NLuc at 2 uM after 24 hrs by luciferase reporter gene assay; type: cell-based
T4 sequence (whole entry): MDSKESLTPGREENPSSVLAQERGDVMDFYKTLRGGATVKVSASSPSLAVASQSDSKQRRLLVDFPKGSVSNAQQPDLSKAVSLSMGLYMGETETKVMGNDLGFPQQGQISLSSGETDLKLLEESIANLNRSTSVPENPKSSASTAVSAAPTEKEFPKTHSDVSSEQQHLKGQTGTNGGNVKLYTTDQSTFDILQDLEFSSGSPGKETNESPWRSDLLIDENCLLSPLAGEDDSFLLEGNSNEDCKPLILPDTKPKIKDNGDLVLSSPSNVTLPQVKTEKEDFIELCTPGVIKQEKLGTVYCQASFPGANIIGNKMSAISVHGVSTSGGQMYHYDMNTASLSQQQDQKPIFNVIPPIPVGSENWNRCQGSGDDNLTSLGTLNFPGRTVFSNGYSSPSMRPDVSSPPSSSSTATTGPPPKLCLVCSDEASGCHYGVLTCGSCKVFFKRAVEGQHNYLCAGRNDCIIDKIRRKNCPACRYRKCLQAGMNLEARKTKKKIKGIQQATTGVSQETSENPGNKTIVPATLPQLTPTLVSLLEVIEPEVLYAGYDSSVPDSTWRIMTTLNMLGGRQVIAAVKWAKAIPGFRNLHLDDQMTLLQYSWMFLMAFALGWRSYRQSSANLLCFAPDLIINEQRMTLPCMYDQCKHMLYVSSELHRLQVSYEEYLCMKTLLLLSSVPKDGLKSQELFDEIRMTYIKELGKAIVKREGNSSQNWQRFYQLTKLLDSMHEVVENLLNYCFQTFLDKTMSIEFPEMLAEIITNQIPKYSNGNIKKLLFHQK

[14] = biological target: Estrogen receptor (Homo sapiens) (UniProt Q92731+P03372); experiment: Inhibition of estradiol-induced transcriptional activity of human ER expressed in human PC3 cells harboring pGL3-ERE-NLuc at 2 uM after 24 hrs by luciferase reporter gene assay; type: cell-based
CWR22R [15] = experiment: Cytotoxicity against human 22Rv1 cells assessed as growth inhibition at 5 uM after 72 hrs by presto-blue dye based assay; type: functional, cell-based
CWR22R [16] = experiment: Cytotoxicity against human 22Rv1 cells assessed as growth inhibition at 0.5 uM after 72 hrs by presto-blue dye based assay; type: functional, cell-based
Androgen receptor [17] = biological target: T5, Androgen receptor (Rattus norvegicus, UniProt P15207); experiment: Displacement of Fluormone-DHT from rat GST-tagged rat AR LBD expressed in insect cells after 4 hrs by fluorescence polarization assay
T5 sequence (P15207 whole entry): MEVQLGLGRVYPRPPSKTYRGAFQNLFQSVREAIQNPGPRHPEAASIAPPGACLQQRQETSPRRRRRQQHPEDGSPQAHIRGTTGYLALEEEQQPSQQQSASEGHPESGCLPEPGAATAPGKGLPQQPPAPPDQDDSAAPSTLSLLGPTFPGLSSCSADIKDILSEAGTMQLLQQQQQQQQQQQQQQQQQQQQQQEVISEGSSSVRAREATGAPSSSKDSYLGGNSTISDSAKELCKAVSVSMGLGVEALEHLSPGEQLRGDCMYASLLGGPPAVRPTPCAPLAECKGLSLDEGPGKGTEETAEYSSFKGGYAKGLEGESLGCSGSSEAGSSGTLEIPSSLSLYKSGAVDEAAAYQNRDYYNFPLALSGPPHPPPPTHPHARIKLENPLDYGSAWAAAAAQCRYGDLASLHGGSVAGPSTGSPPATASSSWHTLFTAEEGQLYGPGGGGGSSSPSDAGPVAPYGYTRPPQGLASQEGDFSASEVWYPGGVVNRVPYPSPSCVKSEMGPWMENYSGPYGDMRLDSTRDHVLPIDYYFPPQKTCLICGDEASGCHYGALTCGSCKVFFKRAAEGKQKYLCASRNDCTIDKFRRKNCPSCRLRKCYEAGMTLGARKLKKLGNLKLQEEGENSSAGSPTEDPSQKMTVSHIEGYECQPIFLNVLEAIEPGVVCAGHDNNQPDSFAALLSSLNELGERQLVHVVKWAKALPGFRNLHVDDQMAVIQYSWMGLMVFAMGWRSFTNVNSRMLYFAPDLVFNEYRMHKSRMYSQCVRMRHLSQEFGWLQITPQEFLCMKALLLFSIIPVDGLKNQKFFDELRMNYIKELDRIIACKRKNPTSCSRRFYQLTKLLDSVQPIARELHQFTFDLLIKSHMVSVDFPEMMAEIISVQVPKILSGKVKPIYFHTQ

Tubulin = experiment: Inhibition of tubulin polymerization (unknown origin); type: protein-complex assay, Homo sapiens
PC-3 [18] = experiment: Cytotoxicity against human PC3 cells assessed as growth inhibition after 72 hrs by presto-blue dye based assay; type: cell-based; conditions: pc-3, 72 h

Row | Compound | pIC50 (Androgen receptor [1]) | growth inhibition (GI) (CWR22R [2]) | Activity (LNCaP [3]) | pIC50 (Androgen receptor [4]) | pIC50 (Androgen receptor [5]) | Activity [6] | inhibition [7] | Activity (LNCaP [8]) | Activity (PC-3 [9]) | Activity [10] | inhibition [11] | inhibition [12] | inhibition [13] | inhibition [14] | growth inhibition (GI) (CWR22R [15]) | growth inhibition (GI) (CWR22R [16]) | pIC50 (Androgen receptor [17]) | pIC50 (Tubulin) | growth inhibition (GI) (PC-3 [18])
1 | COc1ccc(C=C2c3cccc(Cl)c3C(=O)c3c(Cl)cccc32)c(OC)c1O | 5.95 | Active | inactive | 6.77 | 5.00 | inactive | inactive |  |  |  |  |  |  |  |  |  |  |  | 
2 | O=C1c2c(Cl)cccc2C(=Cc2ccccc2O)c2cccc(Cl)c21 |  |  |  |  |  |  |  | Toxic | Toxic |  |  |  |  |  |  |  |  |  | 
3 | COc1cc(C=C2c3cccc(Cl)c3C(=O)c3c(Cl)cccc32)cc(OC)c1O | < 5.00 |  |  |  | < 5.00 |  |  |  |  |  |  |  |  |  |  |  |  |  | 
4 | COc1ccc(C=C2c3ccccc3C(=O)c3ccccc32)c(O)c1 | 6.63 | Active | inactive | 7.00 | > 5.00 | Active | inactive |  |  | inactive | inactive | Active | inactive | inactive |  |  |  |  | 
5 | COc1cccc(C=C2c3cccc(Cl)c3C(=O)c3c(Cl)cccc32)c1O | 5.83 |  | inactive | 6.14 | 5.00 | Active | inactive |  |  |  |  |  |  |  | Active |  |  |  | 
6 | O=C1c2ccccc2C(=Cc2cccc(O)c2)c2ccccc21 | 6.50 |  | inactive | 6.46 | > 5.00 | Active | inactive |  |  | inactive | inactive | Active | inactive | inactive |  | Active | 5.60 to 6.20 | 5.00 | Toxic
7 | COc1ccc(C=C2c3cccc(Cl)c3C(=O)c3c(Cl)cccc32)cc1O | 5.22 to 5.72 | Active | inactive | 6.47 | 5.00 | inactive | inactive |  |  |  |  |  |  |  |  |  |  |  | 
